Source: patent US20060160197A1 (priority 2004, published 2006)

Experiments:
Assay type in all cases: physicochemical
[1] = Example 8 reactive solvent extraction, 90% Alamine 336/10% 1-octanol, 25° C.; settings: pH 2 to 3
Experimental: (§1) A variety of analytical methods can be employed to analyze the reactants and products produced using the present methods include HPLC, GC, ion selective electrodes, MS, NMR, etc. HPLC was used to measure glycolic acid and various related products. Briefly, samples are diluted with water (as needed to be within HPLC detection range) and mixed 1:1 with 0.2 M n-propanol in water (HPLC internal standard). HPLC Analytical Method: (BioRad HPX 87H ion exclusion column (BioRad, Hercules, Calif.), 300 mm×7.8 mm; 0.01 N H2SO4 mobile phase; 1.0 mL/min flow at 50° C.; 10 μL injection volume; RI detector and UV 210 nm, 20 min analysis time). HPLC Equipment: (Waters 2695 ‘Alliance’ Separations Module, 2410 Refractive Index Detector, 2487 Dual λ Absorbance Detector and Empower Pro Software (Waters Corp, Milford, Mass.).
Solvent Extraction Using Approximately 90% C8-C10 Trialkylamine in Combination with 10% 1-Octanol at 25° C.
(§2) Into a 4-mL glass reactor equipped with magnetic stir bar was placed 1 mL of a mixed solvent containing 90% (volume/volume) Alamine® 336 (Cognis), 10% (volume/volume) 1-octanol. The pH of an aqueous solution of ammonium glycolate (5 wt % to 40 wt %) was adjusted to pH 2 to 3 with concentrated sulfuric acid, then 1 mL of the resulting aqueous solution was added to the reactor. The resulting mixture was stirred for 30 minutes at 25° C.

[2] = Example 18 back extraction using water from loaded solvent (70% Alamine 336/10% MIBK/20% kerosene), 140° C.; settings: back extraction into deionized water, 40 psig nitrogen
Experimental: as §1
Following the procedures in Example 1, into a 1-L cylindrical glass vessel on an extraction mixer (mix by rotating back and forth vertically) was placed 100 mL of a mixed solvent containing 70% (volume/volume) Alamine® 336 (Cognis), 10% (volume/volume) methyl isobutyl ketone (MIBK) and 20% (volume/volume) kerosene. The pH of an aqueous solution of ammonium glycolate (10 wt % to 50 wt %) was adjusted to approximately pH 2 to 3 with concentrated sulfuric acid, then 100 mL of the resulting aqueous solution was added to the extraction mixer. The resulting mixture was stirred for 60 minutes at room temperature. […] The organic phase was collected and used in the back extraction. This organic phase containing glycolic acid is referred as “loaded solvent” below.
Back Extraction Using Water from a Loaded Solvent of Approximately 70% C8-C10 Trialkylamine in Combination with 10% Methyl Isobutyl Ketone and 20% Kerosene
Into a 85-mL pressure reaction glass tube (pressure reaction vessel, from Andrews Glass Co.) equipped with magnetic stir bar and double dip tubes was placed 10 mL deionized water and 10 mL of the loaded solvent (see Example 16). The vessel was then closed, and the headspace purged with nitrogen. The resulting mixture was stirred for 60 minutes at 140° C. under 40 psig (˜275.8 kPa) nitrogen. The stirring was stopped and the two phases allowed to separate at 140° C., then the organic phase was sampled under pressure through the top dip tube into a Hoke cylinder, and aqueous phases was sampled under pressure through the bottom dip tube into another Hoke cylinder.

[3] = Example 9 reactive solvent extraction, 90% Alamine 336/10% 1-octanol, 75° C.; settings: pH 2 to 3
Experimental: as §1
Solvent Extraction Using Approximately 90% C8-C10 Trialkylamine in Combination with 10% 1-Octanol at 75° C.
as §2, with “75°” for “25°”

[4] = Example 23 back extraction with aqueous glycolic acid from loaded solvent (70% trialkylamine/30% toluene), 140° C.; settings: 70% C8-C10 trialkylamine/30% toluene, 40 psig nitrogen
Experimental: as §1
Back Extraction from a Loaded Solvent of Approximately 70% C8-C10 Trialkylamine in Combination with 30% Toluene
The vessel was then closed, and the headspace purged with nitrogen. The resulting mixture was stirred for 60 minutes at 140° C. under 40 psig (˜275.8 kPa) nitrogen. The stirring was stopped and the two phases allowed to separate at 140° C., then the organic phase was sampled under pressure through the top dip tube into a Hoke cylinder, and aqueous phases was sampled under pressure through the bottom dip tube into another Hoke cylinder.

[5] = Example 1 reactive solvent extraction, 70% Alamine 336/10% MIBK/20% kerosene, 25° C.; settings: pH 2 to 3
Text: A water-immiscible organic solvent (i.e., “first phase”) is subsequently mixed with the second phase, and forms a two-phase system (a water immiscible organic phase and an aqueous phase). The glycolic acid in the second phase forms a complex with the tertiary trialkyl amine in the first phase.
as §1
Solvent Extraction Using Approximately 70% C8-C10 Trialkylamine in Combination with 10% Methyl Isobutyl Ketone and 20% Kerosene at 25° C.
Into a 4-mL glass reactor equipped with magnetic stir bar was placed 1 mL of a mixed solvent containing 70% (volume/volume) of trialkyl amine (Alamine® 336; Cognis Corp., Cincinnati, Ohio), 10% (volume/volume) methyl isobutyl ketone (MIBK) and 20% (volume/volume) kerosene. The pH of an aqueous solution of ammonium glycolate (5 wt % to 40 wt %) was adjusted to about pH 2 to 3 with concentrated sulfuric acid (H2SO4), then 1 mL of the resulting aqueous solution was added to the reactor. The resulting mixture was stirred for 30 minutes at 25° C.

[6] = initial 3.6 wt % glycolic acid in aqueous phase
[7] = initial 8.5 wt % glycolic acid in aqueous phase
[8] = initial 12.1 wt % glycolic acid in aqueous phase
[9] = initial 16.1 wt % glycolic acid in aqueous phase
[10] = initial 20.6 wt % glycolic acid in aqueous phase
[11] = initial 25.1 wt % glycolic acid in aqueous phase
[12] = initial 29.1 wt % glycolic acid in aqueous phase
[13] = initial 32.8 wt % glycolic acid in aqueous phase

Partition coefficient (wt % org./wt % aq.) [1, 6]: 1.09
Partition coefficient (wt % org./wt % aq.) [1, 7]: 1.03
Partition coefficient (wt % org./wt % aq.) [1, 8]: 1.30
Partition coefficient (wt % org./wt % aq.) [1, 9]: 1.20
Partition coefficient (wt % org./wt % aq.) [1, 10]: 1.20
Partition coefficient (wt % org./wt % aq.) [1, 11]: 1.10
Partition coefficient (wt % org./wt % aq.) [1, 12]: 0.99
Partition coefficient (wt % org./wt % aq.) [1, 13]: 0.82
Partition coefficient (wt % org./wt % aq.) ([2]; initial 3.9 wt % glycolic acid in loaded solvent): 0.48
Partition coefficient (wt % org./wt % aq.) ([2]; initial 11.3 wt % glycolic acid in loaded solvent): 0.37
Partition coefficient (wt % org./wt % aq.) ([2]; initial 16.0 wt % glycolic acid in loaded solvent): 0.34
Partition coefficient (wt % org./wt % aq.) ([2]; initial 17.5 wt % glycolic acid in loaded solvent): 0.35
Partition coefficient (wt % org./wt % aq.) [3, 6]: 0.54
Partition coefficient (wt % org./wt % aq.) [3, 7]: 0.56
Partition coefficient (wt % org./wt % aq.) [3, 8]: 0.62
Partition coefficient (wt % org./wt % aq.) [3, 9]: 0.63
Partition coefficient (wt % org./wt % aq.) [3, 10]: 0.73
Partition coefficient (wt % org./wt % aq.) [3, 11]: 0.75
Partition coefficient (wt % org./wt % aq.) [3, 12]: 0.73
Partition coefficient (wt % org./wt % aq.) [3, 13]: 0.70
Partition coefficient (wt % org./wt % aq.) ([4]; initial 20.0 wt % glycolic acid in aqueous phase, 14.2 wt % in loaded solvent): 0.44
Partition coefficient (wt % org./wt % aq.) ([4]; initial 40.0 wt % glycolic acid in aqueous phase, 15.7 wt % in loaded solvent): 0.45
Partition coefficient of glycolic acid (organic wt %/aqueous wt %) [5, 6]: 1.1
Partition coefficient of glycolic acid (organic wt %/aqueous wt %) [5, 7]: 1.1
Partition coefficient of glycolic acid (organic wt %/aqueous wt %) [5, 8]: 1.0
Partition coefficient of glycolic acid (organic wt %/aqueous wt %) [5, 9]: 0.94
Partition coefficient of glycolic acid (organic wt %/aqueous wt %) [5, 10]: 0.90
Partition coefficient of glycolic acid (organic wt %/aqueous wt %) [5, 11]: 0.85
Partition coefficient of glycolic acid (organic wt %/aqueous wt %) [5, 12]: 0.73
Partition coefficient of glycolic acid (organic wt %/aqueous wt %) [5, 13]: 0.67
SMILES: O=C(O)CO [glycolic acid]
